In patent publication US5036008A, “Antitumor antibiotic BU-3285T” (Bristol-Myers Company, priority 1990, dated 1991):
Converted amounts (≈) assume the structure as drawn.

Assays:
Piricularia oryzae D91 = assay: microbe, parasite or virus in culture; type: cell-based; details: 40 h, pH 7
A. fumigatus IAM2034 = assay: microbe, parasite or virus in culture; details: Aspergillus fumigatus, IAM2034, 40 h, pH 7
Protocol: (§4) In vitro antifungal activity was determined against various fungi by the serial agar dilution method. Sabouraud dextrose agar (pH 7.0) was used for the experiment. The inoculum size was adjusted to 10^6 CFU/ml. After incubation at 28° C. for 40 hours, the minimum inhibitory concentration (MIC) was examined.

[1] = test system: Sporothrix schenckii IF08158; assay: microbe, parasite or virus in culture; details: IF08158, 40 h, pH 7
Protocol: as §4

Candida albicans IAM4888 = assay: In vitro antifungal activity, serial agar dilution; details: IAM4888, 40 h, pH 7
Protocol: as §4

C. albicans A9540 = assay: In vitro antifungal activity, serial agar dilution; details: Candida albicans, A9540, 40 h, pH 7
Protocol: as §4

[2] = test system: Cryptococcus neoformans D49; assay: In vitro antifungal activity, serial agar dilution; details: D49, 40 h, pH 7
Protocol: as §4

C. neoformans IAM4514 = assay: In vitro antifungal activity, serial agar dilution; details: Cryptococcus neoformans, IAM4514, 40 h, pH 7
Protocol: as §4

[3] = test system: Aspergillus fumigatus IAM2530; assay: In vitro antifungal activity, serial agar dilution; details: IAM2530, 40 h, pH 7
Protocol: as §4

A. flavus FA21436 = assay: In vitro antifungal activity, serial agar dilution; details: Aspergillus flavus, FA21436, 40 h, pH 7
Protocol: as §4

[4] = test system: Fusarium moniliforme A2284; assay: In vitro antifungal activity, serial agar dilution; details: Fusarium verticillioides, A2284, 40 h, pH 7
Protocol: as §4

[5] = test system: Trichophyton mentagrophytes D155; assay: In vitro antifungal activity, serial agar dilution; details: D155, 40 h, pH 7
Protocol: as §4

T. mentagrophytes #4329 = assay: In vitro antifungal activity, serial agar dilution; details: Trichophyton mentagrophytes, 40 h, pH 7
Protocol: as §4

[6] = test system: Blastomyces dermatidis D40; assay: In vitro antifungal activity, serial agar dilution; details: D40, 40 h, pH 7
Protocol: as §4

[7] = test system: Petriellidium boydii IF08078; assay: In vitro antifungal activity, serial agar dilution; details: Scedosporium boydii, IF08078, 40 h, pH 7
Protocol: as §4

Mucor spinosus IF05317 = assay: In vitro antifungal activity, serial agar dilution; details: IF05317, 40 h, pH 7
Protocol: as §4

[8] = test system: B16-F10 (murine melanoma) cells; assay: In vitro cytotoxicity (Table 6); type: cell-based; details: Mus musculus; B16-F10, 72 hrs, neutral red
Protocol: (§1) BU-3285T was tested for in vitro cytotoxicity against several murine and human tumor cell lines and for in vivo antitumor activity in mice. Mitomycin C was used as a reference compound in both in vitro and in vivo experiments. B16-F10 (murine melanoma) and Moser (human colorectal carcinoma) cells were grown to the logarithmic phase in an enriched Eagle minimum essential medium supplemented with fetal calf serum (FCS, 10%) and kanamycin (60 μg/ml); HCT-116 (human colon carcinoma) cells were in McCoy's 5A medium supplemented with FCS (10%), penicillin (100 U/ml) and streptomycin (100 μg/ml); and P388 (murine lymphocytic leukemia) cells and its vincristine-resistant subline (P388/VCR) were in RPMI 1640 medium supplemented with FCS (10%), penicillin (100 U/ml) and streptomycin (100 μg/ml).
(§2) B16-F10, Moser, HCT-116 and P388 cells were harvested and implanted into wells of a 96-well (for B16-F10, Moser and HCT-116 cells) or a 24-well (for P388 cells) tissue culture plate with test materials at the inoculum sizes of 3×10^4, 6 ×10^4, 6×10^4 and 2×10^4 cells/ml, respectively. They were incubated at 37° C. in a humidified atmosphere of 5% CO2 and 95% air for 72 hrs. […] For P388 cells, the number of viable cells was determined by a Coulter counter.

[9] = test system: HCT-116 (human colon carcinoma) cells; assay: In vitro cytotoxicity (Table 6); type: cell-based; details: HCT-116, 72 hrs, neutral red
Protocol: as §1, §2

[10] = test system: Moser (human colorectal carcinoma) cells; assay: In vitro cytotoxicity (Table 6); details: Homo sapiens, 72 h
Protocol: as §1, §2

[11] = test system: DNA biosynthesis in L1210 leukemia cells; assay: Inhibition of macromolecule biosynthesis, DNA (Table 7); type: cell-based, murine; details: Mus musculus, L1210; 3H-thymidine, ^14 C-uridine or 3H-leucine precursor; 15 min + 60 min, 37° C.; read-out: IC50, DNA synthesis
Protocol: (§3) Inhibitory effects of BU-3285T on macromolecule biosynthesis (DNA, RNA and protein) were determined in cultured L1210 murine leukemia cells. The cells (5×10^5 cells/ml) were incubated with the compound at 37° C. for 15 minutes and then further incubated for 60 minutes after the addition of labelled precursor, ^3 H-thymidine, ^14 C-uridine or ^3 H-leucine into the cultured mixture. After washing with chilled 5% trichloroacetic acid solution, the radioactivity incorporated into the acid-insoluble fraction of the cells was determined by a liquid scintillation counter.

[12] = test system: RNA biosynthesis in L1210 leukemia cells; assay: Inhibition of macromolecule biosynthesis, RNA (Table 7); type: cell-based, murine; details: Mus musculus, labelled precursor, 15 min + 60 min, 37° C., read-out: IC50, RNA synthesis
Protocol: as §3

[13] = test system: protein biosynthesis in L1210 leukemia cells; assay: Inhibition of macromolecule biosynthesis, protein (Table 7); type: cell-based, murine; details: Mus musculus, L1210; labelled precursor; 15 min + 60 min, 37° C.; read-out: IC50, protein synthesis
Protocol: as §3

P388 leukemia = assay: In vivo antitumor activity against P388 leukemia (Table 8); details: Q1D × 3
L1210 leukemia = assay: In vivo antitumor activity against L1210 leukemia (Table 9); details: Q1D × 3
[14] = test system: B16-F10 (murine melanoma) cells; assay: In vitro cytotoxicity (Table 14); type: cell-based; details: Mus musculus, B16-F10, 72 h
Protocol: (§5) B16-F10 (murine melanoma), HCT-116 (human colon carcinoma), A549 (human lung carcinoma) and A549/VP29 (an etoposide-resistant subline of A549) were grown in Eagle's MEM (Nissui) supplemented with FCS (fetal calf serum, 10%) and non-essential amino acids (B16-F10), or in McCoy's 5A medium (Gibco) with FCS (10%), essential and non-essential amino acids, vitamins and antibiotics (HCT-116 and both of A549) at 37° C. under a humidified atmosphere in a 5% CO2 incubator. Exponentially growing B16-F10, HCT-116 and A549 cells were harvested, counted and suspended in the culture medium at 1.5×10^4, 3×10^4 and 3×10^4 cells/ml, respectively. After planting 180 μl of cell suspension into wells of a 96-well microtiter plate on day 0, the test materials (20 μl) were added on day 1 and the plates were incubated for 72 hours. The cytotoxic activity was colorimetrically determined at 540 nm after staining viable cells with neutral red solution.

[15] = test system: HCT-116 (human colon carcinoma) cells; assay: In vitro cytotoxicity (Table 14); type: cell-based; details: HCT-116, 72 h
Protocol: as §5

[16] = test system: A549 (human lung carcinoma) cells; assay: In vitro cytotoxicity (Table 14); type: cell-based; details: A549, 72 h
Protocol: as §5

[17] = test system: A549/VP29 (etoposide-resistant subline of A549) cells; assay: In vitro cytotoxicity (Table 14); details: A549/VP29, 72 hours, neutral red
Protocol: After planting 180 μl of cell suspension into wells of a 96-well microtiter plate on day 0, the test materials (20 μl) were added on day 1 and the plates were incubated for 72 hours. The cytotoxic activity was colorimetrically determined at 540 nm after staining viable cells with neutral red solution.

B16 melanoma = details: reported; cited from earlier work
fungi = details: reported; cited from earlier work
[18] = 0.1 mg/kg/day ip, significant if T/C ≥ 125%
[19] = 0.3 mg/kg/day ip, *2 significant, T/C ≥ 125%
[20] = 1 mg/kg/day ip, *2 significant, T/C ≥ 125%
[21] = 3 mg/kg/day ip, *2 significant, T/C ≥ 125%

SMILES: CC(=O)N1CCN(c2ccc(OCC3COC(Cn4ccnc4)(c4ccc(Cl)cc4Cl)O3)cc2)CC1 (stereo not shown) [Ketoconazole]
- MIC (Piricularia oryzae D91): 3.1 µg/mL (≈ 5.83 µM)
- MIC (A. fumigatus IAM2034): 6.3 µg/mL (≈ 11.9 µM)
- MIC [1]: 6.3 µg/mL (≈ 11.9 µM)
- MIC (Candida albicans IAM4888): 50 µg/mL (≈ 94.1 µM)
- MIC (C. albicans A9540): 50 µg/mL (≈ 94.1 µM)
- MIC [2]: 0.4 µg/mL (≈ 0.753 µM)
- MIC (C. neoformans IAM4514): 0.4 µg/mL (≈ 0.753 µM)
- MIC [3]: 3.1 µg/mL (≈ 5.83 µM)
- MIC (A. flavus FA21436): 0.4 µg/mL (≈ 0.753 µM)
- MIC [4]: 6.3 µg/mL (≈ 11.9 µM)
- MIC [5]: 1.6 µg/mL (≈ 3.01 µM)
- MIC (T. mentagrophytes #4329): 1.6 µg/mL (≈ 3.01 µM)
- MIC [6]: 0.4 µg/mL (≈ 0.753 µM)
- MIC [7]: 1.6 µg/mL (≈ 3.01 µM)
- MIC (Mucor spinosus IF05317): 100 µg/mL (≈ 188 µM)

SMILES: CO[C@@]12[C@H](COC(N)=O)C3=C(C(=O)C(C)=C(N)C3=O)N1C[C@@H]1N[C@@H]12 [Mitomycin C, reference compound]
- IC50 [8]: 0.5 µg/mL (≈ 1.5 µM)
- IC50 [9]: 0.8 µg/mL (≈ 2.39 µM)
- IC50 [10]: 1.2 µg/mL (≈ 3.59 µM)
- IC50 [11]: 1.7 µg/mL
- IC50 [12]: > 100 µg/mL
- IC50 [13]: > 100 µg/mL
- MST (median survival time) (P388 leukemia; 0.1 mg/kg/day ip): 11.5 days
- T/C (P388 leukemia; [18]): 115%
- MST (median survival time) (P388 leukemia; 0.3 mg/kg/day ip): 14.0 days
- T/C (P388 leukemia; [19]): 140%
- MST (median survival time) (P388 leukemia; 1 mg/kg/day ip): 13.5 days
- T/C (P388 leukemia; [20]): 135%
- MST (median survival time) (P388 leukemia; 3 mg/kg/day ip): 20.0 days
- T/C (P388 leukemia; [21]): 200%
- MST (median survival time) (L1210 leukemia; 0.1 mg/kg/day ip): 8.5 days
- T/C (L1210 leukemia; [18]): 121%
- MST (median survival time) (L1210 leukemia; 0.3 mg/kg/day ip): 10.0 days
- T/C (L1210 leukemia; [19]): 143%
- MST (median survival time) (L1210 leukemia; 1 mg/kg/day ip): 9.5 days
- T/C (L1210 leukemia; [20]): 136%
- MST (median survival time) (L1210 leukemia; 3 mg/kg/day ip): 13.0 days
- T/C (L1210 leukemia; [21]): 186%

SMILES: COc1cc([C@@H]2c3cc4c(cc3[C@@H](O[C@@H]3O[C@@H]5CO[C@@H](C)O[C@H]5[C@H](O)[C@H]3O)[C@H]3COC(=O)[C@H]23)OCO4)cc(OC)c1O [VP16, reference compound]
- IC50 [14]: 0.21 µg/mL (≈ 0.357 µM)
- IC50 [15]: 5.3 µg/mL (≈ 9 µM)
- IC50 [16]: 1.2 µg/mL (≈ 2.04 µM)
- IC50 [17]: 40 µg/mL (≈ 68 µM)

SMILES: C[C@@](O)(/C=C/[C@H]1CC=CC(=O)O1)[C@@H](C[C@@H](O)\C=C/C=C\C=C\CO)OP(=O)(O)O [fostriecin]
- antitumor effect against B16 melanoma (B16 melanoma): no antitumor effect against B16 melanoma
- antifungal activity (fungi): no antifungal activity
